Where a SMILES comes first, the peptide text is derived from it. [ ]: non-standard residue; d: D form. pT = C[C@@H](OP(=O)(O)O)[C@H](N)C(=O)O; pS = N[C@@H](COP(=O)(O)O)C(=O)O
Assays:
14-3-3η [1] = target: T1, 14-3-3η (Homo sapiens, UniProt Q04917); test: isothermal titration calorimetry (ITC) with 14-3-3η; assay type: binding; details: for binding stoichiometry N (ITC, 14-3-3η): T = 298 K, peptide per 14-3-3 protomer, mean ± S.D., n = 3
T1 construct: N-terminally His6-tagged 14-3-3 full-length proteins were expressed with heterologous bacterial expression; made in house
T1 sequence (Q04917 1-246): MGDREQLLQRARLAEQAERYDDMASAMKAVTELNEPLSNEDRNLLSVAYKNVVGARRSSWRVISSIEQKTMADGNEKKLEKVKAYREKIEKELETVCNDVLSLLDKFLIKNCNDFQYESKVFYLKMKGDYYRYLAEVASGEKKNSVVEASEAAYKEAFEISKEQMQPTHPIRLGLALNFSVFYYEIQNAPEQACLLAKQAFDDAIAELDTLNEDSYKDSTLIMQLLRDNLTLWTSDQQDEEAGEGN
Procedure: The ITC experiments were performed on an automated MicroCal iTC200 (Malvern Panalytical). To prepare 14-3-3 proteins for ITC measurements, a buffer exchange to ITC buffer (50 mM HEPES, pH 7.4, 250 mM NaCl, 20 mM MgCl2) was performed on a Superdex 75 10/300 GL column (ÄKTA Pure FPLC system, GE Healthcare). For peptides 1, 7, and 17, a 500 μM solution of protein was titrated to a 50 μM solution of peptide in 18 steps (2-μl volume in 4 s, 180-s spacing) at 25 °C. For peptide 11, a 250 μM solution of protein was titrated to a 12.5 μM solution of peptide with the settings mentioned before. The reference power was set to […], and the stirring speed was set to 750 rpm. Analysis was performed using MicroCal ITC-ORIGIN analysis software.

14-3-3η [2] = target: T1, 14-3-3η; test: direct binding FP assay, 14-3-3η; details: for Kd: FITC-labeled peptide, FP buffer pH 7.4, 60 min room temperature, mean ± S.D., n = 3, values for 14-16 are estimated (Fig. S4), read-out: KD toward 14-3-3η (FP assay)
Procedure: (§1) For the FP assay, the 14-3-3 proteins were diluted to a protein-specific start concentration in FP buffer (10 mM HEPES, pH 7.4, 150 mM NaCl, 2 mM DTT, 0.01% Tween 20). DMSO stocks of peptides were diluted in FP buffer to a concentration of 30 nM. For the assay, 10 μl of FP buffer were pipetted in 20 wells of a 384-well Corning black round bottom plate. A dilution series with 10 μl of protein solution was performed, and 5 μl of peptide solution was added to each well for a final volume of 15 μl. The plate was incubated for 60 min at room temperature. Measurement was performed at 25 °C in a Tecan Spark20M plate reader (λex = 470 nm, λem = 525 nm). Data analysis was performed with GraphPad Prism (version 5.03), and KD values were determined via a nonlinear regression fit of dose-response curves with variable slope (four parameters).

14-3-3σ = target: T2, 14-3-3σ (Homo sapiens, UniProt P31947); test: direct binding fluorescence polarization (FP) assay, 14-3-3σ; details: FITC-labeled peptide; Fig. 2A
T2 construct: N-terminally His6-tagged 14-3-3 full-length proteins were expressed with heterologous bacterial expression; made in house
T2 sequence (P31947 1-248): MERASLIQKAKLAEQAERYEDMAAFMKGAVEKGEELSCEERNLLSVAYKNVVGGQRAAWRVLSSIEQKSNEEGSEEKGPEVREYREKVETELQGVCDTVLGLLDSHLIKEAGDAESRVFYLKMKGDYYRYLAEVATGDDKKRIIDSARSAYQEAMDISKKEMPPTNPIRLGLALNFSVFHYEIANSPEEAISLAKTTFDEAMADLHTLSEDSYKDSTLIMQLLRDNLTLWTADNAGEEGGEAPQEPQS
Procedure: as §1

17: APN 36–73 pThr^63 peptide [compound 17]
ITC result with 14-3-3η (in words) (14-3-3η [1]; 500 μM protein titrated to 50 μM peptide, 25 °C, Fig. S8): no heat change could be observed

CC(=O)N[C@@H](CCC(=O)O)C(=O)N[C@@H](CCCCN)C(=O)N[C@@H](CC(N)=O)C(=O)N[C@@H](CCCCN)C(=O)N[C@@H](CC(N)=O)C(=O)N[C@@H](C)C(=O)N[C@@H](CC(N)=O)C(=O)N[C@@H](COP(=O)(O)O)C(=O)N[C@@H](CO)C(=O)N1CCC[C@H]1C(=O)N[C@H](C(=O)N[C@@H](C)C(=O)N[C@@H](CO)C(=O)N[C@H](C(=O)N[C@H](C(=O)N1CCC[C@H]1C(=O)N[C@@H](CO)C(=O)N[C@@H](C)C(=O)N[C@@H](CO)C(=O)N[C@@H](C)C(=O)N[C@H](C(=O)N[C@H](C(=O)N[C@@H](CC(N)=O)C(=O)N1CCC[C@H]1C(=O)N[C@@H](C)C(=O)N[C@@H](CO)C(=O)N[C@@H](C)C(=O)N[C@H](C(=O)N[C@H](C(=O)N[C@@H](CC(C)C)C(=O)N[C@@H](CC(=O)O)C(=O)N[C@@H](CCC(N)=O)C(=O)N[C@@H](CO)C(=O)N[C@@H](CCCCN)C(=O)N[C@@H](C)C(=O)N[C@@H](Cc1c[nH]c2ccccc12)C(=O)N[C@@H](CC(N)=O)C(=O)N[C@@H](CCCNC(=N)N)C(=O)O)[C@@H](C)O)[C@@H](C)O)[C@@H](C)O)[C@@H](C)O)[C@@H](C)O)[C@@H](C)O)C(C)C [compound 7] (Ac-EKNKNAN[pS]SPVASTTPSASATTNPASATTLDQSKAWNR-OH)
binding stoichiometry N (ITC, 14-3-3η) (14-3-3η [1]): 1.13 ± 0.18

CC(=O)N[C@@H](CCC(=O)O)C(=O)N[C@@H](CCCCN)C(=O)N[C@@H](CC(N)=O)C(=O)N[C@@H](CCCCN)C(=O)N[C@@H](CC(N)=O)C(=O)N[C@@H](C)C(=O)N[C@@H](CC(N)=O)C(=O)N[C@@H](COP(=O)(O)O)C(=O)N[C@@H](CO)C(=O)N1CCC[C@H]1C(=O)N[C@H](C(=O)N[C@@H](C)C(=O)N[C@@H](CO)C(=O)N[C@H](C(=O)N[C@H](C(=O)N1CCC[C@H]1C(=O)N[C@@H](CO)C(=O)N[C@@H](C)C(=O)N[C@@H](CO)C(=O)N[C@@H](C)C(=O)N[C@H](C(=O)N[C@H](C(=O)N[C@@H](CC(N)=O)C(=O)N1CCC[C@H]1C(=O)N[C@@H](C)C(=O)N[C@@H](CO)C(=O)N[C@@H](C)C(=O)N[C@H](C(=O)N[C@H](C(=O)N[C@@H](CC(C)C)C(=O)N[C@@H](CC(=O)O)C(=O)N[C@@H](CCC(N)=O)C(=O)N[C@@H](CO)C(=O)N[C@@H](CCCCN)C(=O)N[C@@H](C)C(=O)N[C@@H](Cc1c[nH]c2ccccc12)C(=O)N[C@@H](CC(N)=O)C(=O)N[C@@H](CCCNC(=N)N)C(=O)O)[C@@H](C)O)[C@@H](C)OP(=O)(O)O)[C@@H](C)O)[C@@H](C)O)[C@@H](C)O)[C@@H](C)O)C(C)C [compound 11] (Ac-EKNKNAN[pS]SPVASTTPSASATTNPASA[pT]TLDQSKAWNR-OH)
increase in overall affinity of 7 versus 11 (14-3-3η, FP) (14-3-3η [2]; pThr^63 combined with site 1, Fig. 4A and Fig. S3): ~500 fold | binding stoichiometry N (ITC, 14-3-3η) (14-3-3η [1]): 0.58 ± 0.01

CC(C)C[C@H](NC(=O)[C@@H](NC(=O)[C@@H](NC(=O)[C@H](C)NC(=O)[C@H](CO)NC(=O)[C@H](C)NC(=O)[C@@H]1CCCN1C(=O)[C@H](CC(N)=O)NC(=O)[C@@H](NC(=O)[C@@H](NC(=O)[C@H](C)NC(=O)[C@H](CO)NC(=O)[C@H](C)NC(=O)[C@H](CO)NC(=O)[C@@H]1CCCN1C(=O)[C@@H](NC(=O)[C@@H](NC(=O)[C@H](CO)NC(=O)[C@H](C)NC(=O)[C@@H](NC(=O)[C@@H]1CCCN1C(=O)[C@H](CO)NC(=O)[C@H](COP(=O)(O)O)NC(=O)[C@H](CC(N)=O)NC(=O)[C@H](C)NC(=O)[C@H](CC(N)=O)NC(=O)[C@H](CCCCN)NC(=O)[C@H](CC(N)=O)NC(=O)[C@H](CCCCN)NC(=O)[C@@H](N)CCC(=O)O)C(C)C)[C@@H](C)O)[C@@H](C)O)[C@@H](C)O)[C@@H](C)O)[C@@H](C)O)[C@@H](C)OP(=O)(O)O)C(=O)N[C@@H](CC(=O)O)C(=O)N[C@@H](CCC(N)=O)C(=O)N[C@@H](CO)C(=O)N[C@@H](CCCCN)C(=O)N[C@@H](C)C(=O)N[C@@H](Cc1c[nH]c2ccccc12)C(=O)N[C@@H](CC(N)=O)C(=O)N[C@@H](CCCNC(=N)N)C(=O)O [compound 12] (H-EKNKNAN[pS]SPVASTTPSASATTNPASAT[pT]LDQSKAWNR-OH)
Kd (14-3-3η [2]): 180 ± 10 nM

CC(C)C[C@H](NC(=O)[C@@H](NC(=O)[C@@H](NC(=O)[C@H](C)NC(=O)[C@H](CO)NC(=O)[C@H](C)NC(=O)[C@@H]1CCCN1C(=O)[C@H](CC(N)=O)NC(=O)[C@@H](NC(=O)[C@@H](NC(=O)[C@H](C)NC(=O)[C@H](CO)NC(=O)[C@H](C)NC(=O)[C@H](CO)NC(=O)[C@@H]1CCCN1C(=O)[C@@H](NC(=O)[C@@H](NC(=O)[C@H](CO)NC(=O)[C@H](C)NC(=O)[C@@H](NC(=O)[C@@H]1CCCN1C(=O)[C@H](CO)NC(=O)[C@H](COP(=O)(O)O)NC(=O)[C@H](CC(N)=O)NC(=O)[C@H](C)NC(=O)[C@H](CC(N)=O)NC(=O)[C@H](CCCCN)NC(=O)[C@H](CC(N)=O)NC(=O)[C@H](CCCCN)NC(=O)[C@@H](N)CCC(=O)O)C(C)C)[C@@H](C)O)[C@@H](C)O)[C@@H](C)O)[C@@H](C)O)[C@@H](C)O)[C@@H](C)O)C(=O)N[C@@H](CC(=O)O)C(=O)N[C@@H](CCC(N)=O)C(=O)N[C@@H](COP(=O)(O)O)C(=O)N[C@@H](CCCCN)C(=O)N[C@@H](C)C(=O)N[C@@H](Cc1c[nH]c2ccccc12)C(=O)N[C@@H](CC(N)=O)C(=O)N[C@@H](CCCNC(=N)N)C(=O)O [compound 13] (H-EKNKNAN[pS]SPVASTTPSASATTNPASATTLDQ[pS]KAWNR-OH; N-terminus assumed)
Kd (14-3-3η [2]): > 83000 nM

KNANSpSPVA [compound 6, APN 39–47 pSer^44 peptide KNANSpSPVA, negative control]
binding toward 14-3-3σ in direct FP assay (in words) (14-3-3σ): did not show any binding
